# Test results published in US10626115B2, “Fused pyrimidinone and triazinone derivatives containing bridged nitrogen, their process of preparation and their therapeutic uses as antifungal and/or antiparasitic agents” (UNIVERSITE DE NANTES, priority 2015, dated 2020).
# Assays:
# [1] = test system: fluconazole-susceptible C. albicans strain: CAAL93; test: Antifungal susceptibility, spectrofluorimetric microdilution, CAAL93; format: cell-based; conditions: Candida albicans, read-out: MIC values CAAL93
# Experimental: (§1) Eight strains of Candida spp. with various azoles-susceptibilities were used: • One fluconazole-susceptible C. albicans strain: CAAL93 • Two fluconazole-resistant C. albicans strains: CAAL111 (efflux pump) and CAAL117 (erg11 mutations+voriconazole-resistant) • five fluconazole-resistant Candida non albicans strains: C. krusei (CAKR7, CAKR8), C. glabrata (CAGL2), C. parapsilosis s.l. (CAPA1, CAPA2).
# (§2) Antifungal susceptibility was evaluated with a spectrofluorimetric microdilution method.
# [2] = test system: A. fumigatus susceptible strain ASFU76; test: Antifungal susceptibility, spectrofluorimetric microdilution, ASFU76; format: cell-based, Aspergillus fumigatus; conditions: Aspergillus fumigatus, read-out: MIC values ASFU76
# Experimental: (§3) Eleven strains of A. fumigatus with various itraconazole susceptibility were used: • Five susceptible strains: ASFU7, ASFU35A, ASFU38A, ASFU76 and ASFU78. • Six itraconazole-resistant strains: ASFU77 (erg11 mutation), ASFU13, ASFU17, ASFU19, ASFU20, ASFU23.
# (§4) Antifungal susceptibility was evaluated with a spectrofluorimetric microdilution method. MIC was the concentration that was able to inhibit 80% of fluorescence measured in the control wells.
# [3] = test system: A. fumigatus susceptible strain ASFU35A; test: Antifungal susceptibility, spectrofluorimetric microdilution, ASFU35A; format: cell-based, Aspergillus fumigatus; conditions: Aspergillus fumigatus, read-out: MIC values ASFU35A
# Experimental: as §3, §4
# [4] = test system: A. fumigatus susceptible strain ASFU38A; test: Antifungal susceptibility, spectrofluorimetric microdilution, ASFU38A; format: cell-based, Aspergillus fumigatus; conditions: Aspergillus fumigatus, read-out: MIC values ASFU38A
# Experimental: as §3, §4
# [5] = test system: A. fumigatus susceptible strain ASFU7; test: Antifungal susceptibility, spectrofluorimetric microdilution, ASFU7; format: cell-based, Aspergillus fumigatus; conditions: Aspergillus fumigatus, read-out: MIC values ASFU7
# Experimental: as §3, §4
# [6] = test system: A. fumigatus susceptible strain ASFU78; test: Antifungal susceptibility, spectrofluorimetric microdilution, ASFU78; format: cell-based, Aspergillus fumigatus; conditions: Aspergillus fumigatus, read-out: MIC values ASFU78
# Experimental: as §3, §4
# [7] = test system: A. fumigatus itraconazole-resistant strain ASFU77 (erg11 mutation); test: Antifungal susceptibility, spectrofluorimetric microdilution, ASFU77; format: cell-based, Aspergillus fumigatus; conditions: for MIC: Aspergillus fumigatus, read-out: MIC values ASFU77
# Experimental: as §3, §4
# [8] = test system: promastigote stage of a Leishmania mexicana strain; test: Anti-Trypanosomatidae activity, promastigote stage, spectrofluorimetric microdilution; format: cell-based; conditions: for IC50: Leishmania mexicana, promastigote stage, 50% of control growth, read-out: L. mexicana (IC50 μM)
# Experimental: Compounds were evaluated on the promastigote stage of a Leishmania mexicana strain using a spectrofluorimetric microdilution method. Inhibitory concentration 50 (IC50) was the concentration that inhibited 50% of the control growth.
# [9] = test system: fluconazole-resistant C. albicans strain CAAL111 (efflux pump); test: microbe, parasite or virus in culture; format: cell-based; conditions: Candida albicans, read-out: MIC values CAAL111
# Experimental: as §1, §2
# [10] = test system: fluconazole-resistant C. albicans strain CAAL117 (erg11 mutations+voriconazole-resistant); test: microbe, parasite or virus in culture; format: cell-based; conditions: for MIC: Candida albicans, read-out: MIC values CAAL117; for fold more active than voriconazole against CAAL117: compared with voriconazole
# Experimental: as §1, §2
# [11] = test system: fluconazole-resistant C. glabrata (CAGL2); test: microbe, parasite or virus in culture; format: cell-based; conditions: Nakaseomyces glabratus, read-out: MIC values CAGL2
# Experimental: as §1, §2
# [12] = test system: fluconazole-resistant C. krusei (CAKR7); test: microbe, parasite or virus in culture; format: cell-based; conditions: Pichia kudriavzevii, read-out: MIC values CAKR7
# Experimental: as §1, §2
# [13] = test system: fluconazole-resistant C. krusei (CAKR8); test: microbe, parasite or virus in culture; format: cell-based; conditions: Pichia kudriavzevii, read-out: MIC values CAKR8
# Experimental: as §1, §2
# [14] = test system: A. fumigatus itraconazole-resistant strain ASFU13; test: Antifungal susceptibility, spectrofluorimetric microdilution, ASFU13; format: cell-based, Aspergillus fumigatus; conditions: Aspergillus fumigatus, read-out: MIC values ASFU13
# Experimental: as §3, §4
# [15] = test system: A. fumigatus itraconazole-resistant strain ASFU17; test: Antifungal susceptibility, spectrofluorimetric microdilution, ASFU17; format: cell-based, Aspergillus fumigatus; conditions: Aspergillus fumigatus, read-out: MIC values ASFU17
# Experimental: as §3, §4
# [16] = test system: A. fumigatus itraconazole-resistant strain ASFU19; test: Antifungal susceptibility, spectrofluorimetric microdilution, ASFU19; format: cell-based, Aspergillus fumigatus; conditions: Aspergillus fumigatus, read-out: MIC values ASFU19
# Experimental: as §3, §4
# [17] = test system: A. fumigatus itraconazole-resistant strain ASFU20; test: Antifungal susceptibility, spectrofluorimetric microdilution, ASFU20; format: cell-based, Aspergillus fumigatus; conditions: Aspergillus fumigatus, read-out: MIC values ASFU20
# Experimental: as §3, §4
# [18] = test system: A. fumigatus itraconazole-resistant strain ASFU23; test: Antifungal susceptibility, spectrofluorimetric microdilution, ASFU23; format: cell-based, Aspergillus fumigatus; conditions: Aspergillus fumigatus, read-out: MIC values ASFU23
# Experimental: as §3, §4
compound,measurement,setting,value
"C[C@@H](n1ccc2nccn2c1=O)[C@](O)(Cn1cncn1)c1ccc(F)cc1F [Compound 27, 6-[(1R,2R)-2-(2,4-Difluorophenyl)-2-hydroxy-1-methyl-3-(1H-1,2,4-triazol-1-yl)propyl]imidazo[1,2-c]pyrimidin-5-one]",MIC,[1],0.014 ± 0.001 µg/mL
same,MIC,[2],6.76 ± 0.1 µg/mL
same,MIC,[3],6.96 ± 1.49 µg/mL
same,MIC,[4],23 ± 21.1 µg/mL
same,MIC,[5],7.29 ± 0.22 µg/mL
same,MIC,[6],6.03 ± 0.95 µg/mL
same,"MIC values against ITRA-resistant isolate carrying M220T mutation (ASFU77), in words",[7],in the micromolar range
same,MIC,[7],6.47 ± 0.03 µg/mL
same,IC50,[8],> 100 µM
same,melting point,,156 to 157 °C
"Cc1cn2c(=O)n([C@H](C)[C@](O)(Cn3cncn3)c3ccc(F)cc3F)ccc2n1 [Compound 28, 6-[(1R,2R)-2-(2,4-Difluorophenyl)-2-hydroxy-1-methyl-3-(1H-1,2,4-triazol-1-yl)propyl]-2-methylimidazo[1,2-c]pyrimidin-5-one]",IC50,[8],> 100 µM
same,melting point,,103 to 104 °C
"C[C@@H](n1ccc2nc(-c3ccc(F)cc3)cn2c1=O)[C@](O)(Cn1cncn1)c1ccc(F)cc1F [Compound 30, 6-[(1R,2R)-2-(2,4-Difluorophenyl)-2-hydroxy-1-methyl-3-(1H-1,2,4-triazol-1-yl)propyl]-2-(4-fluorophenyl)imidazo[1,2-c]pyrimidin-5-one]","effectiveness against the promastigote stage of L. Mexicana, in words",[8],effective
same,IC50,[8],8.1 ± 1.6 µM
same,melting point,,114 to 115 °C
"C[C@@H](n1ccc2nc(-c3ccc(Cl)cc3)cn2c1=O)[C@](O)(Cn1cncn1)c1ccc(F)cc1F [Compound 31, 6-[(1R,2R)-2-(2,4-Difluorophenyl)-2-hydroxy-1-methyl-3-(1H-1,2,4-triazol-1-yl)propyl]-2-(4-chlorophenyl)imidazo[1,2-c]pyrimidin-5-one]",MIC,[1],< 0.001 µg/mL
same,MIC,[2],5.7 ± 0.51 µg/mL
same,MIC,[3],5.81 ± 0.5 µg/mL
same,MIC,[4],5.59 ± 0.15 µg/mL
same,MIC,[5],5.04 µg/mL
same,MIC,[6],5.72 ± 0.39 µg/mL
same,"MIC values against ITRA-resistant isolate carrying M220T mutation (ASFU77), in words",[7],in the micromolar range
same,MIC,[7],5.99 ± 0.33 µg/mL
same,melting point,,158 to 159 °C
"C[C@@H](n1ccc2nc(-c3ccc(Br)cc3)cn2c1=O)[C@](O)(Cn1cncn1)c1ccc(F)cc1F [Compound 32, 6-[(1R,2R)-2-(2,4-Difluorophenyl)-2-hydroxy-1-methyl-3-(1H-1,2,4-triazol-1-yl)propyl]-2-(4-bromophenyl)imidazo[1,2-c]pyrimidin-5-one]",melting point,,161 to 162 °C
"C[C@@H](n1ccc2nc(-c3ccc(C(F)(F)F)cc3)cn2c1=O)[C@](O)(Cn1cncn1)c1ccc(F)cc1F [Compound 33, 6-[(1R,2R)-2-(2,4-Difluorophenyl)-2-hydroxy-1-methyl-3-(1H-1,2,4-triazol-1-yl)propyl]-2-[(4-trifluoromethyl)phenyl]imidazo[1,2-c]pyrimidin-5-one]",melting point,,196 to 197 °C
"C[C@@H](n1ccc2nc(-c3nccs3)cn2c1=O)[C@](O)(Cn1cncn1)c1ccc(F)cc1F [Compound 36, 6-[(1R,2R)-2-(2,4-Difluorophenyl)-2-hydroxy-1-methyl-3-(1H-1,2,4-triazol-1-yl)propyl]-2-(thiazol-2-yl)imidazo[1,2-c]pyrimidin-5-one]",melting point,,175 to 176 °C
"CCOC(=O)c1cn2c(=O)n([C@H](C)[C@](O)(Cn3cncn3)c3ccc(F)cc3F)ccc2n1 [Compound 37, Ethyl-6-[(1R,2R)-2-(2,4-difluorophenyl)-2-hydroxy-1-methyl-3-(1H-1,2,4-triazol-1-yl)propyl]-5-oxo-imidazo[1,2-c]pyrimidine-2-carboxylate]",melting point,,148 to 149 °C
"C[C@@H](n1ccc2nc(C#N)cn2c1=O)[C@](O)(Cn1cncn1)c1ccc(F)cc1F [Compound 38, 6-[(1R,2R)-2-(2,4-Difluorophenyl)-2-hydroxy-1-methyl-3-(1H-1,2,4-triazol-1-yl)propyl]-5-oxo-imidazo[1,2-c]pyrimidine-2-carbonitrile]",melting point,,132 to 133 °C
"C[C@@H](n1ncc2cccn2c1=O)[C@](O)(Cn1cncn1)c1ccc(F)cc1F [Compound 44, 3-[(1R,2R)-2-(2,4-Difluorophenyl)-2-hydroxy-1-methyl-3-(1,2,4-triazol-1-yl)propyl]-3H-pyrrolo[1,2-d][1,2,4]triazin-4-one]",MIC,[1],< 0.001 µg/mL
same,MIC,[9],0.48 ± 0.199 µg/mL
same,MIC,[10],0.79 ± 0.092 µg/mL
same,MIC,[11],0.099 ± 0.004 µg/mL
same,MIC,[12],0.625 ± 0.057 µg/mL
same,MIC,[13],1.15 µg/mL
same,MIC,[2],18.1 ± 10.1 µg/mL
same,MIC,[3],21.4 ± 10.1 µg/mL
same,MIC,[4],55.1 ± 9.96 µg/mL
same,MIC,[5],24.3 ± 9.57 µg/mL
same,MIC,[6],19.7 ± 12.9 µg/mL
same,MIC,[14],4.06 µg/mL
same,MIC,[15],> 38 µg/mL
same,MIC,[16],> 38 µg/mL
same,MIC,[7],52.8 ± 4.54 µg/mL
same,MIC,[17],8.04 µg/mL
same,MIC,[18],9.54 µg/mL
same,melting point,,131 to 132 °C
"C[C@@H](n1ncc2cc(Br)cn2c1=O)[C@](O)(Cn1cncn1)c1ccc(F)cc1F [Compound 45, 7-Bromo-3-[(1R,2R)-2-(2,4-difluorophenyl)-2-hydroxy-1-methyl-3-(1,2,4-triazol-1-yl)propyl]-3H-pyrrolo[1,2-d][1,2,4]triazin-4-one]",melting point,,142 to 143 °C
"C[C@@H](n1ncc2cc(-c3ccccc3)cn2c1=O)[C@](O)(Cn1cncn1)c1ccc(F)cc1F [Compound 47, 3-[(1R,2R)-2-(2,4-Difluorophenyl)-2-hydroxy-1-methyl-3-(1,2,4-triazol-1-yl)propyl]-7-phenyl-3H-pyrrolo[1,2-d][1,2,4]triazin-4-one]",MIC,[1],< 0.001 µg/mL
same,MIC,[9],0.016 ± 0.001 µg/mL
same,MIC,[10],0.014 ± 0.002 µg/mL
same,fold more active than voriconazole against CAAL117,[10],100 fold
same,MIC,[11],0.008 ± 0.005 µg/mL
same,MIC,[12],0.013 ± 0.001 µg/mL
same,MIC,[13],0.014 µg/mL
same,MIC,[2],48.4 ± 7.95 µg/mL
same,MIC,[3],41.3 ± 8.61 µg/mL
same,MIC,[4],58.4 ± 15.7 µg/mL
same,MIC,[5],44.1 ± 7.76 µg/mL
same,MIC,[6],54.7 ± 12.1 µg/mL
same,MIC,[7],64.8 ± 7.46 µg/mL
same,melting point,,146 to 147 °C
"C[C@@H](n1ncc2cc(-c3ccc(C#N)cc3)cn2c1=O)[C@](O)(Cn1cncn1)c1ccc(F)cc1F [Compound 49, 4-{3-[(1R,2R)-2-(2,4-Difluorophenyl)-2-hydroxy-1-methyl-3-(1,2,4-triazol-1-yl)propyl]-4-oxo-3,4-dihydro-pyrrolo[1,2-d][1,2,4]triazin-7-yl}benzonitrile]",MIC,[1],< 0.048 µg/mL
same,MIC,[10],0.016 ± 0.001 µg/mL
same,fold more active than voriconazole against CAAL117,[10],100 fold
same,MIC,[11],0.025 ± 0.01 µg/mL
same,MIC,[12],0.058 ± 0.009 µg/mL
same,MIC,[13],0.101 ± 0.014 µg/mL
same,melting point,,201 to 202 °C
"N=C(N)c1ccc(OCCCCCOc2ccc(C(=N)N)cc2)cc1 [Pentamidine, reference compound]",IC50,[8],0.34 ± 0.03 µM
